In US7291641B2, “Derivatives of heterocycles with 5 members, their preparation and their use as medicaments” (Societe de Conseils de Recherches et d'Applications …, priority 1999, dated 2007):

CC(C)CCOC(=O)NCCc1nc(-c2ccc(-c3ccccc3)cc2)c[nH]1 [Example 380, isopentyl 2-[4-(1,1′-biphenyl-4-yl)-1H-imidazol-2-yl]ethylcarbamate] gave a melting point of 128 to 130 °C. Work on CCCCCCOC(=O)NCCc1nc(-c2ccc(-c3ccc(Br)cc3)cc2)c[nH]1 [Example 381, hexyl 2-[4-(4′-bromo-1,1′-biphenyl-4-yl)-1H-imidazol-2-yl]ethylcarbamate] yielded a melting point of 138 to 140 °C. CC(C)(C)c1ccc(-c2c[nH]c(CCNC(=O)OCc3ccccc3)n2)cc1 [Example 382, benzyl 2-[4-(4-tert-butylphenyl)-1H-imidazol-2-yl]ethylcarbamate] gave a melting point of 173 °C. With CC(C)(C)CCOC(=O)NCCc1nc(-c2ccc(-c3ccccc3)cc2)c[nH]1 [Example 383, 3,3-dimethylbutyl 2-[4-(1,1′-biphenyl-4-yl)-1H-imidazol-2-yl]ethylcarbamate] the melting point was 98.4 °C. In the case of CCCCCCOC(=O)NCCc1nc(-c2ccc(N3CCCC3)cc2)c[nH]1 [Example 384, hexyl 2-[4-(4-pyrrolidin-1-ylphenyl)-1H-imidazol-2-yl]ethylcarbamate], the melting point is reported as 110 to 114 °C. Molecule O=C(NCCc1nc(-c2ccc(N3CCCC3)cc2)c[nH]1)OCCCC(F)(F)F [Example 385, 4,4,4-trifluorobutyl 2-[4-(4-pyrrolidin-1-ylphenyl)-1H-imidazol-2-yl]ethylcarbamate] has a melting point of 148.3 °C. CCCCCCOC(=O)NCCc1nc(-c2cc(C(C)(C)C)c(O)c(C(C)(C)C)c2)c[nH]1 [Example 386, hexyl 2-[4-(3,5-ditert-butyl-4-hydroxyphenyl)-1H-imidazol-2-yl]ethylcarbamate] showed a melting point of 197.4 °C. In the case of COc1ccc(-c2c[nH]c(CCNC(=O)OCCC(C)(C)C)n2)cc1 [Example 388, 3,3-dimethylbutyl 2-[4-(4-methoxyphenyl)-1H-imidazol-2-yl]ethylcarbamate], the melting point is reported as 116.8 °C. Molecule CC(C)(C)c1cc(-c2c[nH]c(CCNC(=O)OCc3ccccc3)n2)cc(C(C)(C)C)c1O [Example 389, benzyl 2-[4-(3,5-ditert-butyl-4-hydroxyphenyl)-1H-imidazol-2-yl]ethylcarbamate] has a melting point of 177.5 °C. In the case of O=C(NCCc1nc(-c2ccc(N3CCCC3)cc2)c[nH]1)OCc1ccccc1 [Example 390, benzyl 2-[4-(4-pyrrolidin-1-ylphenyl)-1H-imidazol-2-yl]ethylcarbamate], the melting point is reported as 122.4 °C. O=C(NCCc1nc(-c2ccc(-c3ccccc3)cc2)c[nH]1)OCCc1ccccc1 [Example 391, 2-phenylethyl 2-[4-(1,1′-biphenyl-4-yl)-1H-imidazol-2-yl]ethylcarbamate] gave a melting point of 142 to 143 °C. For CCCCOC(=O)NCCc1nc(-c2ccc(-c3ccc(F)cc3)cc2)c[nH]1 [Example 392, butyl 2-[4-(4′-fluoro-1,1′-biphenyl-4-yl)-1H-imidazol-2-yl]ethylcarbamate], the melting point was 149.3 °C. With CCCCOC(=O)NCCc1nc(-c2ccc(-c3ccccc3)cc2)c(C)[nH]1 [Example 393, butyl 2-[4-(1,1′-biphenyl-4-yl)-5-methyl-1H-imidazol-2-yl]ethylcarbamate] the melting point was 143 to 144 °C. In the case of CCCCOC(=O)NCCc1nc(-c2ccc(-c3ccc(C)cc3)cc2)c[nH]1 [Example 394, butyl 2-[4-(4′-methyl-1,1′-biphenyl-4-yl)-1H-imidazol-2-yl]ethylcarbamate], the melting point is reported as 168.4 °C. With CCCCOC(=O)NCCc1nc(-c2ccc(-c3ccc(Cl)cc3)cc2)c[nH]1 [Example 395, butyl 2-[4-(4′-chloro-1,1′-biphenyl-4-yl)-1H-imidazol-2-yl]ethylcarbamate] the melting point was 164.2 °C. In the case of CCCCOC(=O)NCCc1nc(-c2ccc(-c3ccccc3F)cc2)c[nH]1 [Example 396, butyl 2-[4-(2′-fluoro-1,1′-biphenyl-4-yl)-1H-imidazol-2-yl]ethylcarbamate], the melting point is reported as 113.8 °C. In the case of CCCCOC(=O)NCCc1nc(-c2ccc(-c3ccc(SC)cc3)cc2)c[nH]1 [Example 397, butyl 2-{4-[4′-(methylthio)-1,1′-biphenyl-4-yl]-1H-imidazol-2-yl}ethylcarbamate], the melting point is reported as 167.9 °C. For CCCCOC(=O)NCCc1nc(-c2ccc(-c3cccc(Cl)c3)cc2)c[nH]1 [Example 443, butyl 2-[4-(3′-chloro-1,1′-biphenyl-4-yl)-1H-imidazol-2-yl]ethylcarbamate], the melting point was 142.6 °C. CCCCOC(=O)NCCc1nc(-c2ccc(-c3cccc(F)c3)cc2)c[nH]1 [Example 444, butyl 2-[4-(3′-fluoro-1,1′-biphenyl-4-yl)-1H-imidazol-2-yl]ethylcarbamate] gave a melting point of 141.5 °C. With CCCCOC(=O)NCCc1nc(-c2ccc(CC(C)C)cc2)c[nH]1 [Example 445, butyl 2-[4-(4-isobutylphenyl)-1H-imidazol-2-yl]ethylcarbamate] the melting point was 95.5 °C. Work on CC(C)Cc1ccc(-c2c[nH]c(CCNC(=O)OCc3ccccc3)n2)cc1 [Example 446, benzyl 2-[4-(4-isobutylphenyl)-1H-imidazol-2-yl]ethylcarbamate] yielded a melting point of 125.2 °C. CCCCOC(=O)NCCc1nc(-c2ccc(-c3ccc(F)c(Cl)c3)cc2)c[nH]1 [Example 447, butyl 2-[4-(3′-chloro-4′-fluoro-1,1′-biphenyl-4-yl)-1H-imidazol-2-yl]ethylcarbamate] gave a melting point of 132.4 °C. CCCCOC(=O)NCCc1nc(-c2ccc(-c3ccc(Cl)c(Cl)c3)cc2)c[nH]1 [Example 448, butyl 2-[4-(3′,4′-dichloro-1,1′-biphenyl-4-yl)-1H-imidazol-2-yl]ethylcarbamate] gave a melting point of 137.5 °C. CCCCOC(=O)NCCc1nc(-c2ccc(CCC)cc2)c[nH]1 [Example 449, butyl 2-[4-(4-propylphenyl)-1H-imidazol-2-yl]ethylcarbamate] showed a melting point of 83.2 °C. Work on CCCCOC(=O)NCCc1nc(-c2ccc(CC)cc2)c[nH]1 [Example 450, butyl 2-[4-(4-ethylphenyl)-1H-imidazol-2-yl]ethylcarbamate] yielded a melting point of 92.4 °C. With CCCCOC(=O)NCCc1nc(-c2ccc(-c3ccc(C#N)cc3)cc2)c[nH]1 [Example 451, butyl 2-[4-(4′-cyano-1,1′-biphenyl-4-yl)-1H-imidazol-2-yl]ethylcarbamate] the melting point was 147 °C. In the case of CCCCOC(=O)NCCc1nc(-c2ccc(-c3ccc(C(F)(F)F)cc3)cc2)c[nH]1 [Example 452, butyl 2-{4-[41-(trifluoromethyl)-1,1′-biphenyl-4-yl]-1H-imidazol-2-yl}ethylcarbamate], the melting point is reported as 168.5 °C. With CCCCOC(=O)NCCc1nc(-c2ccc(-c3ccccc3)cc2)c(CC)[nH]1 [Example 453, butyl 2-[4-(1,1′-biphenyl-4-yl)-5-ethyl-1H-imidazol-2-yl]ethylcarbamate] the melting point was 127 to 128 °C. CCCCOC(=O)NCCc1nc(-c2ccc(-c3ccccc3Cl)cc2)c[nH]1 [Example 454, butyl 2-[4-(2′-chloro-1,1′-biphenyl-4-yl)-1H-imidazol-2-yl]ethylcarbamate] gave a melting point of 99.7 °C. Molecule CCCCOC(=O)NCCc1nc(-c2ccc(-c3cccc(F)c3F)cc2)c[nH]1 [Example 455, butyl 2-[4-(2′,3′-difluoro-1,1′-biphenyl-4-yl)-1H-imidazol-2-yl]ethylcarbamate] has a melting point of 90 °C. Work on CCCCOC(=O)NCCc1nc(-c2ccc(-c3ccccc3Br)cc2)c[nH]1 [Example 456, butyl 2-[4-(2′-bromo-1,1′-biphenyl-4-yl)-1H-imidazol-2-yl]ethylcarbamate] yielded a melting point of 109.6 °C. With CCCCOC(=O)NCCc1nc(-c2ccc(-c3cc(F)cc(F)c3)cc2)c[nH]1 [Example 457, butyl 2-[4-(3′,5′-difluoro-1,1′-biphenyl-4-yl)-1H-imidazol-2-yl]ethylcarbamate] the melting point was 111.1 °C. In the case of CCCCOC(=O)NCCc1nc(-c2ccc(-c3ccccc3OC)cc2)c[nH]1 [Example 458, butyl 2-[4-(2′-methoxy-1,1′-biphenyl-4-yl)-1H-imidazol-2-yl]ethylcarbamate], the melting point is reported as 116 to 121 °C. Molecule CCCCOC(=O)NCCc1nc(-c2ccc(-c3cccc([N+](=O)[O-])c3)cc2)c[nH]1 [Example 459, butyl 2-[4-(3′-nitro-1,1′-biphenyl-4-yl)-1H-imidazol-2-yl]ethylcarbamate] has a melting point of 100.5 to 101.5 °C. CCCCOC(=O)NCCc1nc(-c2ccc(-c3cc(F)ccc3F)cc2)c[nH]1 [Example 460, butyl 2-[4-(2′,5′-difluoro-1,1′-biphenyl-4-yl)-1H-imidazol-2-yl]ethylcarbamate] gave a melting point of 109.5 °C. In the case of CCCCOC(=O)NCCc1nc(-c2ccc(-c3cccc(OC)c3)cc2)c[nH]1 [Example 461, butyl 2-[4-(3′-methoxy-1,1′-biphenyl-4-yl)-1H-imidazol-2-yl]ethylcarbamate], the melting point is reported as 112 to 113 °C.
